# Reference: patent publication US9434734B2, “Substituted pyrazoloquinazolinones and pyrroloquinazolinones as allosteric modulators of group II metabotropic glutamate receptors” (Domain Therapeutics, priority 2012, dated 2016)
# How the values were obtained:
# [1] = biological target: T1, human mGluR2 (hmGluR2) transiently over-expressed in HEK-293 cells (Homo sapiens, UniProt Q14416); assay: Human mGluR2 negative allosteric modulator evaluation using Ca++ functional assay (agonist and NAM activity); format: cell-based; details: hmGluR2 in HEK-293 cells, EC80 glutamate, Fluo4AM calcium readout; read-out: mGluR2 negative allosteric modulator activity IC50
# T1 construct: expressed in transfected cells; host or cells: HEK-293 cells, transient co-transfection by electroporation
# Experimental: Human mGluR2 Negative Allosteric Modulator Evaluation Using Ca^++ Functional Assay
# Compounds of the present invention were tested successively for their agonist and negative allosteric modulator activities on human mGluR2 (hmGluR2) transiently over-expressed in HEK-293 cells. They exert agonist activity if they are able to activate mGluR2 by themselves, i.e., in absence of the endogenous agonist glutamate; and they exert negative allosteric modulator activity if they decrease the action of the endogenous agonist glutamate.
# HEK-293 cells were maintained in Modified Eagle's Medium supplemented with 10% Foetal Calf Serum, 1% Penicillin/Streptomycin and 1% nonessential amino acids at 37° C./5% CO2.
# Cells were plated after transfection onto polyornithine coated, clear bottom, black-walled, 96-well plates and cultured for 24 h.
# Receptor activity was detected by changes in intracellular calcium measured using the fluorescent Ca^2+ sensitive dye, Fluo4AM (Molecular Probes).
# The day of the assay, medium was aspirated and replaced during 3 hours by medium without serum supplemented with 1% Glutamax, 1% Penicillin/Streptomycin and 1% nonessential amino acids. Then, cells were washed with freshly prepared buffer B (HBSS 1× (PAA), Hepes 20 mM, MgSO4-7H2O 1 mM, Na2CO3 3.3 mM, CaCl2-2H2O 1.3 mM, 0.5% BSA, Probenecid 2.5 mM) and loaded at 37° C./5% CO2 for 1.5 hours with buffer B containing 1 μM Fluo4AM, 0.1 mg/mL Pluronic Acid, 7 μg/mL Glutamate Pyruvate Transaminase and 2 mM sodium pyruvate. Afterwards cells were washed twice with buffer B and 50 μL of this buffer were added to each well.
# Agonist and negative allosteric modulator activities of compounds were consecutively evaluated on the same cells plate. […] Then, the cells were stimulated by an EC80 glutamate concentration and fluorescence was recorded for additional 60 s. EC80 glutamate concentration is the concentration giving 80% of the maximal glutamate response. Agonist and/or negative allosteric modulator activity(ies) were evaluated in comparison to basal signal or signal evoked by EC80 glutamate alone, respectively.
# For potency determination, a dose-response test was performed using 8 concentrations of each compound of the invention. Dose-response curves were fitted using the sigmoidal dose-response (variable slope) analysis in GraphPad Prism program (Graph Pad Inc) and EC50 of agonist/IC50 of negative allosteric modulator activity was calculated. Dose-response experiments were all performed in duplicate, two times independently.
# T1 sequence (Q14416 19-872): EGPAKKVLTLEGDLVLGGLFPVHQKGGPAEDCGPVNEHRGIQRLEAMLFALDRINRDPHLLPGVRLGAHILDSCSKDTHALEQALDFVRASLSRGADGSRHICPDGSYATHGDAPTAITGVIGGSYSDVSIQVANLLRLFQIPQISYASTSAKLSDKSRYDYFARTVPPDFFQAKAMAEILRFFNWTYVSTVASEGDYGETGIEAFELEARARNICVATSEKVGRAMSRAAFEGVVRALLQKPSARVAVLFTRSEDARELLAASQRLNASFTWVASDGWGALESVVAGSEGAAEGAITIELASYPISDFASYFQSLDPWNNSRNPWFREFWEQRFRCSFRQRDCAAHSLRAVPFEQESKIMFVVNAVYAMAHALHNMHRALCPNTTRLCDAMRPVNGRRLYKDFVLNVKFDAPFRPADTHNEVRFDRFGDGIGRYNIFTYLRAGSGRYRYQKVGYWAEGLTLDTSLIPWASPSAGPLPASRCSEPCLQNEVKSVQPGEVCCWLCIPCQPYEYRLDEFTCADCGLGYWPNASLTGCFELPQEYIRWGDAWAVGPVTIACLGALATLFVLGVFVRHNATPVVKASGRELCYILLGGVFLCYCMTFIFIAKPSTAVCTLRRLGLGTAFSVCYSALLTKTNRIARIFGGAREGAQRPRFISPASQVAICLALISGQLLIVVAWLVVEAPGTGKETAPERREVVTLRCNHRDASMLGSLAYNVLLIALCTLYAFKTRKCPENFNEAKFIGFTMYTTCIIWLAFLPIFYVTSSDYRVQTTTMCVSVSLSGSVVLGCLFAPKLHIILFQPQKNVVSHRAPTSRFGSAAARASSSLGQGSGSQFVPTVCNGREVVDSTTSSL
SMILES,IC50 [1] [nM],melting point [°C]
"Cl.Cn1c(=O)c2ccc(-c3ccc(N)nc3)cc2n2nc(C3CCCCC3)cc12 [Example 74, 8-(6-Amino-pyridin-3-yl)-2-cyclohexyl-4-methyl-4H-pyrazolo[1,5-a]quinazolin-5-one]",< 1000,194 to 197
"Cl.Cn1c(=O)c2ccc(-c3ccc(N)nc3)cc2n2nc(-c3ccnc(C(F)(F)F)c3)cc12 [Example 136, 8-(6-Amino-pyridin-3-yl)-4-methyl-2-(2-trifluoromethyl-pyridin-4-yl)-4H-pyrazolo[1,5-a]quinazolin-5-one]",< 1000,> 250
"CCn1cc(-c2cc3n(C)c(=O)c4ccc(-c5ccc(N)nc5)cc4n3n2)cn1.Cl [Example 131, 8-(6-Amino-pyridin-3-yl)-2-(1-ethyl-1H-pyrazol-4-yl)-4-methyl-4H-pyrazolo[1,5-a]quinazolin-5-one]",< 1000,226 to 238
"Cn1c(=O)c2ccc(-c3cccc(S(=O)(=O)NC(C)(C)CO)c3)cc2n2nc(C3CCOCC3)cc12 [Example 101, N-(2-Hydroxy-1,1-dimethyl-ethyl)-3-[4-methyl-5-oxo-2-(tetrahydro-pyran-4-yl)-4,5-dihydro-pyrazolo[1,5-a]quinazolin-8-yl]-benzenesulfonamide]",< 1000,223 to 226
"Cc1cc(-c2ccc3c(=O)n(C)c4cc(C5CCCC5)nn4c3c2)cc(C)n1.Cl [Example 66, 2-Cyclopentyl-8-(2,6-dimethyl-pyridin-4-yl)-4-methyl-4H-pyrazolo[1,5-a]quinazolin-5-one]",< 1000,> 250
"Cl.Cn1c(=O)c2ccc(-c3cnc(N)nc3)cc2n2nc(-c3ccccc3)cc12 [Example 31, 8-(2-Amino-pyrimidin-5-yl)-4-methyl-2-phenyl-4H-pyrazolo[1,5-a]quinazolin-5-one]",< 1000,> 250
"Cn1c(=O)c2ccc(-c3cccc(C#N)c3)cc2n2nc(-c3ccccc3)cc12 [Example 35, 3-(4-Methyl-5-oxo-2-phenyl-4,5-dihydro-pyrazolo[1,5-a]quinazolin-8-yl)-benzonitrile]",< 1000,> 250
"Cc1cc(-c2cc3n(C)c(=O)c4ccc(-c5c(C)n[nH]c5C)cc4n3n2)cc(C)n1.Cl [Example 146, 8-(3,5-Dimethyl-1H-pyrazol-4-yl)-2-(2,6-dimethyl-pyridin-4-yl)-4-methyl-4H-pyrazolo[1,5-a]quinazolin-5-one]",< 1000,> 250
"Cc1n[nH]c(C)c1-c1ccc2c(=O)n(C)c3cc(-c4ccccc4)nn3c2c1 [Example 15, 8-(3,5-Dimethyl-1H-pyrazol-4-yl)-4-methyl-2-phenyl-4H-pyrazolo[1,5-a]quinazolin-5-one]",< 1000,> 250
"Cl.Cn1c(=O)c2ccc(-c3ccc(N)nc3)cc2n2nc(C3CCOCC3)cc12 [Example 86, 8-(6-Amino-pyridin-3-yl)-4-methyl-2-(tetrahydro-pyran-4-yl)-4H-pyrazolo[1,5-a]quinazolin-5-one]",< 1000,> 250
"Cc1cc(-c2cc3n(C)c(=O)c4ccc(-c5ccccc5)cc4n3n2)cc(C)n1.Cl [Example 115, 2-(2,6-Dimethyl-pyridin-4-yl)-4-methyl-8-phenyl-4H-pyrazolo[1,5-a]quinazolin-5-one]",< 1000,> 250
"Cn1c(=O)c2ccc(-c3cnco3)cc2n2nc(-c3ccccc3)cc12 [Example 21, 4-Methyl-8-oxazol-5-yl-2-phenyl-4H-pyrazolo[1,5-a]quinazolin-5-one]",< 1000,222 to 225
"Cc1cc(-c2ccc3c(=O)n(C)c4cc(-c5ccccc5)nn4c3c2)cnc1N.Cl [Example 26, 8-(6-Amino-5-methyl-pyridin-3-yl)-4-methyl-2-phenyl-4H-pyrazolo[1,5-a]quinazolin-5-one]",< 1000,226 to 227
"CCn1c(=O)c2ccc(-c3cc(C)nc(C)c3)cc2n2nc(C3CCCC3)cc12.Cl [Example 70, 2-Cyclopentyl-8-(2,6-dimethyl-pyridin-4-yl)-4-ethyl-4H-pyrazolo[1,5-a]quinazolin-5-one]",< 1000,> 250
"CCc1nc(N)ccc1-c1ccc2c(=O)n(C)c3cc(-c4ccccc4)nn3c2c1.Cl [Example 27, 8-(6-Amino-2-ethyl-pyridin-3-yl)-4-methyl-2-phenyl-4H-pyrazolo[1,5-a]quinazolin-5-one]",< 1000,239 to 240
"Cc1[nH]ncc1-c1ccc2c(=O)n(C)c3cc(C4CCOCC4)nn3c2c1 [Example 92, 4-Methyl-8-(5-methyl-1H-pyrazol-4-yl)-2-(tetrahydro-pyran-4-yl)-4H-pyrazolo[1,5-a]quinazolin-5-one]",< 1000,223 to 229
"COCCc1cc2n(C)c(=O)c3ccc(-c4ccc(N)nc4)cc3n2n1.Cl [Example 53, 8-(6-Amino-pyridin-3-yl)-2-(2-methoxy-ethyl)-4-methyl-4H-pyrazolo[1,5-a]quinazolin-5-one]",< 1000,198 to 202
"Cc1cc(-c2ccc3c(=O)n(C)c4cc(C5CCOC5)nn4c3c2)cc(C)n1.Cl (centres unmarked) [Example 106, 8-(2,6-Dimethyl-pyridin-4-yl)-4-methyl-2-(tetrahydro-furan-3-yl)-4H-pyrazolo[1,5-a]quinazolin-5-one]",< 1000,> 250
"Cl.Nc1ccc(-c2ccc3c(=O)n(CC(F)F)c4cc(-c5ccccc5)nn4c3c2)cn1 [Example 46, 8-(6-Amino-pyridin-3-yl)-4-(2,2-difluoro-ethyl)-2-phenyl-4H-pyrazolo[1,5-a]quinazolin-5-one]",< 1000,> 250
"Cc1cc(-c2ccc3c(=O)n(C)c4cc(-c5cnn(C)c5)nn4c3c2)cc(C)n1.Cl [Example 130, 8-(2,6-Dimethyl-pyridin-4-yl)-4-methyl-2-(1-methyl-1H-pyrazol-4-yl)-4H-pyrazolo[1,5-a]quinazolin-5-one]",< 1000,> 250
"Cc1cc(N)ncc1-c1ccc2c(=O)n(C)c3cc(-c4ccccc4)nn3c2c1.Cl [Example 24, 8-(6-Amino-4-methyl-pyridin-3-yl)-4-methyl-2-phenyl-4H-pyrazolo[1,5-a]quinazolin-5-one]",< 1000,235 to 240
"Cl.Cn1c(=O)c2ccc(-c3ccc(N)nc3)cc2n2nc(C3CC3)cc12 [Example 63, 8-(6-Amino-pyridin-3-yl)-2-cyclopropyl-4-methyl-4H-pyrazolo[1,5-a]quinazolin-5-one]",< 1000,> 250
"CC(C)c1cc2n(C)c(=O)c3ccc(-c4ccc(N)nc4)cc3n2n1.Cl [Example 51, 8-(6-Amino-pyridin-3-yl)-2-isopropyl-4-methyl-4H-pyrazolo[1,5-a]quinazolin-5-one]",< 1000,240 to 244
"Cl.Nc1ccc(-c2ccc3c(=O)n(CC(F)F)c4cc(C5CCOCC5)nn4c3c2)cn1 [Example 103, 8-(6-Amino-pyridin-3-yl)-4-(2,2-difluoro-ethyl)-2-(tetrahydro-pyran-4-yl)-4H-pyrazolo[1,5-a]quinazolin-5-one]",< 1000,> 250
"Cl.Cn1c(=O)c2ccc(-c3cccnc3)cc2n2nc(C3CCOCC3)cc12 [Example 89, 4-Methyl-8-pyridin-3-yl-2-(tetrahydro-pyran-4-yl)-4H-pyrazolo[1,5-a]quinazolin-5-one]",< 1000,202 to 224
"CC(C)n1c(=O)c2ccc(-c3ccc(N)nc3)cc2n2nc(-c3ccccc3)cc12.Cl [Example 47, 8-(6-Amino-pyridin-3-yl)-4-isopropyl-2-phenyl-4H-pyrazolo[1,5-a]quinazolin-5-one]",< 1000,214 to 216
"Cl.Nc1ccc(-c2ccc3c(=O)n(C4CCC4)c4cc(-c5ccccc5)nn4c3c2)cn1 [Example 48, 8-(6-Amino-pyridin-3-yl)-4-cyclobutyl-2-phenyl-4H-pyrazolo[1,5-a]quinazolin-5-one]",< 1000,203 to 205
"CCn1c(=O)c2ccc(-c3cccc(S(=O)(=O)N(C)C)c3)cc2n2nc(-c3ccccc3)cc12 [Example 39, N,N-Dimethyl-3-(4-Ethyl-5-oxo-2-phenyl-4,5-dihydro-pyrazolo[1,5-a]quinazolin-8-yl)-benzenesulfonamide]",< 1000,197 to 198
